Molecules are shown by their SMILES.

Series [1] can be described thus: in vitro. As to conditions: human.
The subject of series [2] is 1617-1. Kind of series: HIV-1 resistant strain PBMC assay (p24 ELISA), 1617-1 (AZT resistant). The series is classed as cell-based. The settings on record: Human immunodeficiency virus 1, PBMC, read-out: IC50 against 1617-1. (An ELISA detects its analyte on a solid surface through an enzyme-linked reagent.)
Series [3] has as its system SF162. In words: HIV-1 clinical strain PBMC assay (p24 ELISA), SF162. It counts as cell-based. As to conditions: Human immunodeficiency virus 1, PBMC, read-out: IC50 against SF162.
In series [4] the test system is HIV. Kind of series: microbe, parasite or virus in culture. The series is classed as cell-based. The settings on record: for EC50: Human immunodeficiency virus 1, A549.
The test system of series [5] is 89.6. Kind of series: HIV-1 clinical strain PBMC assay (p24 ELISA), 89.6. The series is classed as cell-based. The settings on record: Human immunodeficiency virus 1, PBMC, read-out: IC50 against 89.6.
A short description of series [6]: Cytotoxicity against PBMC. As to conditions: human. The series is classed as cell-based.
Series [7] concerns N119. In words: HIV-1 resistant strain PBMC assay (p24 ELISA), N119 (nevaripine resistant). It counts as cell-based. The settings on record: Human immunodeficiency virus 1, PBMC, read-out: IC50 against N119.
Series [8] has as its system Lav.04. In words: HIV-1 clinical strain PBMC assay (p24 ELISA), Lav.04. It counts as cell-based. As to conditions: Human immunodeficiency virus 1, PBMC, read-out: IC50 against Lav.04.
In series [9] the test system is Bal. In words: HIV-1 clinical strain PBMC assay (p24 ELISA), Bal. It counts as cell-based. As to conditions: Human immunodeficiency virus 1, BAL, read-out: IC50 against Bal.
For series [10], the system named is A549 cells. Kind of series: cells. As to conditions: Homo sapiens, A549, read-out: % Inhibition against A549 cells.
Series [11] relates to SARS-CoV-2. In words: microbe, parasite or virus in culture. The series is classed as cell-based. The settings on record: Severe acute respiratory syndrome coronavirus 2, HepG2, read-out: EC50 against SARS-CoV-2.
Series [12] deals with EBOV (Ebola virus). Kind of series: microbe, parasite or virus in culture. The series is classed as cell-based. The settings on record: Zaire ebolavirus; for EC50: A549, read-out: EC50 against EBOV; for inhibition at 0.05 µg/mL: 50 ng/mL; for inhibition at 0.1 µg/mL: 100 ng/mL; for inhibition at 0.5 µg/mL: 500 ng/mL; for inhibition at 0.0125 µg/mL: 12.5 ng/mL.
Series [13] concerns VSV (vesicular stomatitis virus). Kind of series: microbe, parasite or virus in culture. The series is classed as cell-based. As to conditions: for inhibition at 0.05 µg/mL: A549, 50 ng/mL; for EC50: A549, read-out: EC50 against VSV; for inhibition at 0.1 µg/mL: A549, 100 ng/mL; for inhibition at 0.5 µg/mL: A549, 500 ng/mL; for inhibition at 0.0125 µg/mL: A549, 12.5 ng/mL.
The test system of series [14] is H5N1 virus. In words: microbe, parasite or virus in culture. It counts as cell-based, H5N1 influenza virus. The settings on record: for inhibition at 0.05 µg/mL: H5N1, A549, 50 ng/mL; for EC50: H5N1, A549, read-out: EC50 against H5N1 virus; for inhibition at 0.1 µg/mL: H5N1, A549, 100 ng/mL; for inhibition at 0.5 µg/mL: H5N1, A549, 500 ng/mL; for inhibition at 0.0125 µg/mL: H5N1, A549, 12.5 ng/mL.

Series [15] in a line: Repeated-dose toxicity study in mice. The settings on record: 25 and 50 mg/kg, daily i.p. for 28 days.
The mark [16] stands for this setting: CC50 against the host cell line A549.
The mark [17] stands for this setting: A549, read-out: % Inhibition against EBOV.
[18] abbreviates: read-out: % Inhibition against VSV.
Setting [19] is: Influenza A virus, read-out: % Inhibition against H5N1 virus.

The term IC50 denotes the concentration needed to halve the response being measured. Usually EC50 stands for the concentration needed to bring the measured effect to its halfway point. On to `CCOC(=O)COc1c2c(c(-c3ccc4c(c3)OCO4)c3cc(OC)c(OC)cc13)C(=O)OC2` [Compound 12b], for which the figures for the CC50 in series [1] (CC50 (nM)) and in series [6] were more than 26800 nM and more than 100000 nM, respectively. Moreover, the IC50 in [2] was 537 nM; in series [3], 340 nM; in series [5] it was 376 nM; in series [7] it was 638 nM; in series [8] it was 312 nM; in series [9], 458 nM. A half-maximal response in [4] (EC50) required 207 nM.
The term inhibition denotes the relative decrease from the control value, in per cent. In the case of `COc1cc2c(OC3O[C@H](CO)[C@@H]4OC(C)(C)O[C@@H]4[C@H]3O)c3c(c(-c4ccc5c(c4)OCO5)c2cc1OC)C(=O)OC3` (stereo partly drawn) [Compound 32b, 3″, 4″-Acetonide-4-O-β-D-galactopyranosyldiphyllin], the CC50 in series [1] (CC50 (nM)) is 52.7 nM; in series [1] (setting [16]), 30.7 nM. Further, the inhibition at 0.01 µg/mL in series [10] was found to be 40.5%; in series [12] (A549, 10 ng/mL, read-out: % Inhibition against EBOV), 86.4%; in series [13] (A549, 10 ng/mL, read-out: % Inhibition against VSV), 90.9%; in [14] (Influenza A virus, H5N1, A549, 10 ng/mL, read-out: % Inhibition against H5N1 virus) it was 91.7%. Also, the inhibition at 0.05 µg/mL in series [10] is 76%; in [12] (setting [17]) it was 92.7%; in series [13] (setting [18]), 99.6%; in [14] (setting [19]), 88.1%. The EC50 in series [11] is 3.01 nM; in series [12], 0.85 nM; in series [13], 3.15 nM; in series [14] (Influenza A virus) it was 0.77 nM.
`COc1cc2c(B3OC(C)(C)C(C)(C)O3)c3c(c(-c4ccc5c(c4)OCO5)c2cc1OC)C(=O)OC3` [Compound 19a]: the CC50 in series [1] (CC50 (nM)) is 10500 nM; in [6], more than 100000 nM. Also, the IC50 in series [2] is 152 nM; in [3], 154 nM; in [5], 143 nM; in [7] it was 185 nM; in [8], 138 nM; in [9] it was 188 nM. Moreover, the “anti-HIV activity in terms of SI values” in series [4] was “much more improved anti-HIV activity”. This molecule also had an EC50 in series [4] of 77.2 nM.
Take `COc1cc2c(OC3OC[C@@H](OC(C)=O)[C@H](OC(C)=O)[C@H]3OC(C)=O)c3c(c(-c4ccc5c(c4)OCO5)c2cc1OC)C(=O)OC3` (stereo partly drawn) [Compound 25a, Peracetylated 7β-D-xylosyloxydiphyllin]: in [1] (CC50 (nM)), the CC50 turned out to be 3080 nM. Further, in series [4], the “anti-HIV activity in terms of SI values” is reported as “much more improved anti-HIV activity” and the EC50 turned out to be 7 nM. In series [15], the “excised organs at the end of the experiment” value was “appeared as normal”; the “toxic symptoms (weight loss, skin damage, food and water intake impairment and postual abnormality) and mortality” value was “no toxic symptoms”.
For the molecule `COc1cc2c(OC3O[C@@H]4COC(C)(C)O[C@@H]4[C@H](O)[C@H]3O)c3c(c(-c4ccc5c(c4)OCO5)c2cc1OC)C(=O)OC3` (stereo partly drawn) [Compound 32c, 4″,6″-Acetonide-4-O-β-D-galactopyranosyldiphyllin], the CC50 in series [1] (CC50 (nM)) came out at 52.7 nM; in [1] (setting [16]), 1040 nM. Moreover, the inhibition at 0.1 µg/mL in [10] amounted to 2.9%; in series [12] (setting [17]) it was 85.5%; in [13] (setting [18]) it was 48.9%; in series [14] (setting [19]) it was 65.1%. Besides, the inhibition at 0.5 µg/mL was 39.7% in series [10], 88.2% in series [12] (setting [17]), 88.1% in [13] (setting [18]) and 88.1% in [14] (setting [19]). Also, the EC50 in [11] was 50.8 nM; in series [12], 20.3 nM; in [13], 124 nM; in series [14] (Influenza A virus), 5.2 nM.
Take `COc1cc2c(OC3O[C@H](C)[C@@H](O)[C@H](O)[C@H]3O)c3c(c(-c4ccc5c(c4)OCO5)c2cc1OC)C(=O)OC3` (some centres unmarked) [Compound 26b, Patentiflorin A]: the CC50 in series [1] (CC50 (nM)) amounted to 347 nM; in [1] (setting [16]), 386 nM. Also, the EC50 in series [11] stood at 67.2 nM; in [4] it was 21.1 nM; in series [12], 54.8 nM; in series [13], 42.5 nM; in series [14] (Influenza A virus), 4.48 nM.
Consider `COc1cc2c(OC3O[C@H](CO)[C@H](O)[C@@H]4OC(C)(C)O[C@@H]34)c3c(c(-c4ccc5c(c4)OCO5)c2cc1OC)C(=O)OC3` (stereo partly drawn) [Compound 32d, 2″,3″-Acetonide-4-O-β-D-galactopyranosyldiphyllin], for which the CC50 in [1] (CC50 (nM)) is 52.7 nM; in series [1] (setting [16]), 1350 nM. Also, the inhibition at 0.1 µg/mL in series [10] was -2%; in [12] (setting [17]), 65.5%; in [13] (setting [18]), 100%; in series [14] (setting [19]), 19.3%. Further, the inhibition at 0.5 µg/mL was 24.3% in series [10], 82.7% in series [12] (setting [17]), 71.7% in [13] (setting [18]) and 83.5% in [14] (setting [19]). In addition, the EC50 in [11] came out at 80.4 nM; in series [12], 396 nM; in [13], 286 nM; in [14] (Influenza A virus), 200 nM.
`C#Cc1c2c(c(-c3ccc4c(c3)OCO4)c3cc(OC)c(OC)cc13)C(=O)OC2` [Compound 21]: the CC50 in series [1] (CC50 (nM)) is 207 nM; in series [6] it was 25600 nM. For the same molecule, the half-maximal inhibitory concentration (IC50) was 39.3 nM in [2]; 23.9 nM in series [3]; 28.7 nM in series [5]; 42.1 nM in series [7]; 30.1 nM in [8]; 26.5 nM in [9]. In series [4], this molecule registered an EC50 of 17.8 nM.
Turning to `C=CCOC(=O)O[C@@H]1COC(Oc2c3c(c(-c4ccc5c(c4)OCO5)c4cc(OC)c(OC)cc24)C(=O)OC3)[C@H](O)[C@H]1OC(C)=O` (stereo partly drawn) [Compound 28ab1, 4″-O-allyl oxycarbonyl-3″-acetyl-7-O-β-D-xylosyldiphyllin], the CC50 was determined as 513 nM in [1] (CC50 (nM)) and 190 nM in [1] (setting [16]). For the same molecule, the inhibition at 0.0125 µg/mL in series [10] came to 35.5%; in series [12] (setting [17]), 81%; in [13] (setting [18]), 85.9%; in series [14] (setting [19]), 91.8%. Further, the inhibition at 0.05 µg/mL in series [10] stood at 40.9%; in series [12] (setting [17]) it was 82.4%; in [13] (setting [18]), 83.5%; in [14] (setting [19]) it was 86%. Moreover, the EC50 in series [11] turned out to be 26.3 nM; in series [12], 18.9 nM; in series [13] it was 3.78 nM; in [14] (Influenza A virus), 5.05 nM.
Regarding `COc1cc2c(OC3O[C@H](C)[C@@H](O)[C@H](OC(=O)CC#N)[C@H]3O)c3c(c(-c4ccc5c(c4)OCO5)c2cc1OC)C(=O)OC3` (stereo partly drawn) [Compound 31j, 3″-O-cyanoacetyl-7-O-β-D-patentiflorin A], the CC50 in series [1] (CC50 (nM)) and in series [1] (setting [16]) was 6.68 nM in each case. Further, the inhibition at 0.0125 µg/mL in [10] was 77%; in [12] (setting [17]), 93.9%; in series [13] (setting [18]) it was 98.4%; in series [14] (setting [19]), 97.5%. Besides, the inhibition at 0.05 µg/mL in series [10] was found to be 93.8%; in series [12] (setting [17]), 96.6%; in series [13] (setting [18]) it was 99.9%; in series [14] (setting [19]) it was 87.6%. In addition, the EC50 turned out to be 10.3 nM in series [11]; 0.91 nM in [4]; 0.84 nM in [12]; 0.91 nM in [13]; 0.84 nM in series [14] (Influenza A virus). For the same molecule, the “% Inhibition against H5N1 virus” value in series [14] (50 ng/mL) stood at 98.2%. The inhibition at 0.25 µg/mL in series [14] (Influenza A virus, H5N1, A549, 250 ng/mL, read-out: % Inhibition against H5N1 virus) was 97.9%.

Values taken from US11638713B2, “Patentiflorin A analogs as antiviral agents” (priority 2019, dated 2023).
